Data published in US20120129949A1, “Use of Anthracene Derivatives as Anti-Infectives” (SEALIFE PHARMA GMBH, priority 2009, published 2012).
In brackets after ≈: the same amount, converted by molar mass. Where two headings read alike, the source gives them in different places.

Experiments:
[1] = tested on: Streptococcus pneumoniae; test: MIC test, multi-resistant Streptococcus pneumoniae; format: cell-based; settings: for MHK values STR (Streptococcus pneumoniae): multi-resistant strain, averages of multiple test runs, log2 dilutions from 250 μg/ml
Method: (§1) The activities of the compounds were tested in two different screening systems. The antibacterial and antifungal activities were examined by means of an MIC test, MIC standing for “minimal inhibitory concentration” and referring to the lowest concentration of a substance at which no proliferation of microorganisms can be observed with the naked eye. The MIC is determined by means of a so called titration method in which the substance is diluted and, subsequently, the pathogen is added to it.
(§2) Usually, this method is applied in order to determine the concentration of an antibiotic which only just inhibits the growth of a bacterial strain. The MIC is indicated in micrograms per milliliter (μg/ml), and the dilutions are conventionally carried out in log2 steps. Herein, a starting concentration of 250 μg/ml was diluted several times, to the double volume in each case, resulting in test concentrations of 250 μg/ml, 125 μg/ml, 62.5 μg/ml, 31.2 μg/ml, 15.6 μg/ml, 7.8 μg/ml, etc. Thus, lower values indicate a better activity as an anti-infective.
(§3) The tests were carried out according to the standards of EUCAST (European Committee for Antimicrobial Susceptibility Testing) and according to the AFST-protocol (“Antifungal Susceptibility Testing” protocol) of the European Society of Clinical Microbiology and Infectious Diseases (ESCMID).
(§4) In the following Table 3, the test results indicating the anti-infective action of altersolanol M, alterporriol I and J as well as of some known and structurally similar comparative substances against some multi-resistant bacteria and fungi (all of which were kindly placed at our disposal by Prof Georgopulos from the Medical University of Vienna). The data constituting averages of the values obtained in multiple test runs.

[2] = tested on: Staphylococcus epidermis; test: MIC test, multi-resistant Staphylococcus epidermis; format: cell-based; settings: for MIC: Staphylococcus, read-out: MHK values SE (Staphylococcus epidermis)
Method: as §1, §2, §3, §4

[3] = tested on: Acinetobacter baumanii; test: MIC test, multi-resistant Acinetobacter baumanii; format: cell-based; settings: multi-resistant strain; averages of multiple test runs; log2 dilutions from 250 μg/ml
Method: as §1, §2, §3, §4

[4] = tested on: E. coli; test: MIC test, multi-resistant E. coli; format: cell-based; settings: multi-resistant strain; averages of multiple test runs; log2 dilutions from 250 μg/ml
Method: as §1, §2, §3, §4

[5] = tested on: Enterococcus faecalis or faecium; test: MIC test, multi-resistant Enterococcus; format: cell-based; settings: multi-resistant strain; averages of multiple test runs; log2 dilutions from 250 μg/ml
Method: as §1, §2, §3, §4

[6] = tested on: methicillin-resistant Staphylococcus aureus; test: MIC test, MRSA; format: cell-based; settings: for MIC: Staphylococcus aureus, MRSA, read-out: MHK values MRSA (methicillin-resistant Staphylococcus aureus)
Method: as §1, §2, §3, §4

[7] = tested on: Aspergillus fumigatus or faecalis; test: MIC test (antifungal), Aspergillus; format: cell-based; settings: multi-resistant strain; averages of multiple test runs; log2 dilutions from 250 μg/ml
Method: as §1, §2, §3, §4

[8] = tested on: bacteria and fungi; settings: Aly et al., Phytochemistry 69, 1716-1725; cited from earlier work
[9] = Yagi et al., Phytochemistry 34(4), 1005-1009 (1993); cited from earlier work
[10] = tested on: Klebsiella sp.; test: MIC test, multi-resistant Klebsiella sp.; format: cell-based; settings: multi-resistant strain; averages of multiple test runs; log2 dilutions from 250 μg/ml
Method: as §1, §2
(§5) The tests were carried out according to the standards of EUCAST (European Committee for Antimicrobial Susceptibility Testing) and according to the AFST-protocol (“Antifungal Susceptibility Testing” protocol) of the European Society of Clinical Microbiology and Infectious Diseases (ESCMID). […]

[11] = tested on: Staphylococcus aureus or methicillin-resistant Staphylococcus aureus; settings: Xu et al. 2008; Sommart et al. 2008; cited from earlier work
[12] = tested on: Pseudomonas aeruginosa; test: MIC test, multi-resistant Pseudomonas aeruginosa; format: cell-based; settings: multi-resistant strain; averages of multiple test runs; log2 dilutions from 250 μg/ml
Method: as §1, §2, §5

[13] = multi-resistant strain, averages of multiple test runs, log2 dilutions from 250 μg/ml
[14] = verbal summary of the MIC test series

| Compound | MHK values STR (Streptococcus pneumoniae) [1] [µg/mL] | MHK values AB (Acinetobacter baumanii) [3] [µg/mL] | MHK values EK (Enterococcus faecalis or faecium) [5] [µg/mL] | MIC [2, 13] [µg/mL] | MHK values ASP (Aspergillus fumigatus or faecalis) [7] [µg/mL] | further results |
| --- | --- | --- | --- | --- | --- | --- |
| COc1cc(O)c(C(=O)O)c(-c2cc(O)c(O)cc2C)c1 [Altenusin] | 31.2 | 62.5 | 62.5 |  |  | MIC [2]: 31.2 µg/mL (≈ 107 µM); MHK values EC (E. coli) [4]: 62.5 µg/mL; MIC [6]: 31.2 µg/mL (≈ 107 µM) |
| COc1cc(O)c2c(c1)C(=O)C1=C(C2=O)[C@H](O)[C@@H](O)[C@@](C)(O)[C@@H]1O [Altersolanol A, 7-methoxy-2-methyl-(1R,2S,3R,4S)-1,2,3,4-tetrahydro-1,2,3,4,5-pentahydroxy-anthracene-9,10-dione] | 7.8 | 62.5 | 15.6 | 7.8 (≈ 23.2 µM) | 7.8 | activity against bacteria and fungi [8]: most efficient of the tested substances; anti-microbial activity [9]: anti-microbial activity; MHK values EC (E. coli) [4]: 62.5 µg/mL; MIC [6]: 7.8 µg/mL (≈ 23.2 µM) |
| COc1cc(O)c2c(c1)C(=O)[C@H]1C[C@](C)(O)[C@H](O)C[C@@H]1[C@H]2O [Altersolanol J] | 15.6 | 125 | 31.2 |  | 125 | MHK values SE (Staphylococcus epidermis) [2, 13]: 62.5 µg/mL; MHK values KL (Klebsiella sp.) [10]: 125 µg/mL; activity against bacteria and fungi [8]: do not show any activity; MHK values MRSA (methicillin-resistant Staphylococcus aureus) [6, 13]: 62.5 µg/mL |
| COc1cc(O)c2c(c1)[C@H](O)[C@@H]1[C@@H](C2=O)[C@H](O)[C@@H](O)[C@@](C)(O)[C@@H]1O [Ampelanol] |  |  |  |  |  | activity against bacteria and fungi [8]: do not show any activity |
| COC1=CC(=O)c2c(O)c3c(c(O)c2C1=O)C[C@](C)(O)[C@H](O)[C@H]3O [Bostrycin] | 62.5 | 125 |  | 125 (≈ 372 µM) |  | MIC [6, 13]: 125 µg/mL (≈ 372 µM) |
| COc1cc(O)c2c(c1)C(=O)[C@@H]1[C@H](C[C@@H](O)[C@@](C)(O)[C@@H]1O)[C@H]2O [Example 2, (1R,2R,3R,4aS,9aR,10R)-1,2,3,5,10-pentahydroxy-7-methoxy-2-methyl-1,2,3,4,4a,9a-hexahydro-9H,10H-anthracen-9-one] | 31.2 |  | 31.2 | 31.2 (≈ 96.2 µM) | 62.5 | MIC [6, 13]: 31.2 µg/mL (≈ 96.2 µM) |
| COc1cc(O)c2c(c1)[C@H](O)[C@@H]1[C@H](C[C@@H](O)[C@@](C)(O)[C@@H]1O)C2=O [Example 3, (2R,3R,4R,4aS,9aS,10R)-2,3,4,8,10-pentahydroxy-6-methoxy-3-methyl-1,2,3,4,4a,9a-hexahydro-9H,10H-anthracen-9-one] | 7.8 | 7.8 | 7.8 | 7.8 (≈ 24 µM) | 31.2 | MIC [6, 13]: 7.8 µg/mL (≈ 24 µM) |
| COc1cc2c(c(O)c1-c1c(OC)cc(O)c3c1C(=O)C1=C(C3=O)[C@H](O)[C@@H](O)[C@@](C)(O)[C@H]1O)C(=O)c1cc(O)c(C)cc1C2=O [Example 4, 8-(1,7-dihydroxy-6-methyl-3-methoxy-9,10-dioxo-9H,10H-anthracen-2-yl)-(1S,2S,3R,4S)-1,2,3,4,5-pentahydroxy-7-methoxy-2-methyl-1,2,3,4-tetrahydro-9H,10H-anthracen-9,10-dione] | 7.8 |  | 7.8 | 7.8 (≈ 12.6 µM) | 125 | MIC [6]: 7.8 µg/mL (≈ 12.6 µM) |
| COc1cc(O)c2c(c1O)[C@H](O)[C@H]1C[C@](C)(O)[C@H](O)C[C@@H]1C2=O [Example 5, (2R,3S,4aS,9aS,10R)-2,3,5,8,10-penta-hydroxy-6-methoxy-3-methyl-1,2,3,4,4a,9a-hexahydro-9H,10H-anthracen-9-one] | 7.8 |  | 125 | 15.6 (≈ 48.1 µM) | 31.2 | effectiveness against Staphylococcus aureus or methicillin-resistant Staphylococcus aureus [11]: slight effectiveness; activity against Streptococcus pneumoniae, in words [1, 14]: excellent effectiveness; MIC [6, 13]: 15.6 µg/mL (≈ 48.1 µM); activity against methicillin-resistant Staphylococcus aureus, in words [6, 14]: very good activity |
| COc1cc(O)c2c(c1)C(=O)c1cc(C)c(O)cc1C2=O [Macrosporin] |  | 125 |  | 62.5 (≈ 220 µM) |  | MHK values EC (E. coli) [4]: 62.5 µg/mL; MIC [6, 13]: 62.5 µg/mL (≈ 220 µM) |
| COc1cc(O)c2c(c1)C(=O)C1=C(C[C@@H](O)[C@@](C)(O)C1)C2=O [altersolanol B] |  |  |  |  |  | anti-microbial activity [9]: anti-microbial activity |
| COc1cc(O)c2c(c1)C(=O)C1=C(C[C@@H](O)[C@@](C)(O)[C@@H]1O)C2=O [altersolanol C] |  |  |  |  |  | anti-microbial activity [9]: anti-microbial activity |
| Alterporriol A + B | 7.8 | 125 | 15.6 |  | 62.5 | MHK values SE (Staphylococcus epidermis) [2, 13]: 15.6 µg/mL; MHK values MRSA (methicillin-resistant Staphylococcus aureus) [6, 13]: 15.6 µg/mL |
| Indole carbaldehyde (carboxaldehyde) | 62.5 | 125 |  |  |  | MHK values PS (Pseudomonas aeruginosa) [12]: 125 µg/mL |
| Macrosporin sulfate | 31.2 | 125 |  |  |  |  |
| alterporriols D and E |  |  |  |  |  | activity against bacteria and fungi [8]: do not show any activity |
| altersolanol D |  |  |  |  |  | anti-microbial activity [9]: completely ineffective |
| altersolanol F |  |  |  |  |  | anti-microbial activity [9]: completely ineffective |
